Here are results for one compound from ChEMBL document CHEMBL3085700 (J Med Chem, 2013).

Activity calls are given as the source filed them. The calls are words filed in the database; no cut-off is given here.

Experiment [1] concerns the target T1, Fatty-acid amide hydrolase 1 (Homo sapiens, UniProt O00519).
T1 sequence (O00519 whole entry): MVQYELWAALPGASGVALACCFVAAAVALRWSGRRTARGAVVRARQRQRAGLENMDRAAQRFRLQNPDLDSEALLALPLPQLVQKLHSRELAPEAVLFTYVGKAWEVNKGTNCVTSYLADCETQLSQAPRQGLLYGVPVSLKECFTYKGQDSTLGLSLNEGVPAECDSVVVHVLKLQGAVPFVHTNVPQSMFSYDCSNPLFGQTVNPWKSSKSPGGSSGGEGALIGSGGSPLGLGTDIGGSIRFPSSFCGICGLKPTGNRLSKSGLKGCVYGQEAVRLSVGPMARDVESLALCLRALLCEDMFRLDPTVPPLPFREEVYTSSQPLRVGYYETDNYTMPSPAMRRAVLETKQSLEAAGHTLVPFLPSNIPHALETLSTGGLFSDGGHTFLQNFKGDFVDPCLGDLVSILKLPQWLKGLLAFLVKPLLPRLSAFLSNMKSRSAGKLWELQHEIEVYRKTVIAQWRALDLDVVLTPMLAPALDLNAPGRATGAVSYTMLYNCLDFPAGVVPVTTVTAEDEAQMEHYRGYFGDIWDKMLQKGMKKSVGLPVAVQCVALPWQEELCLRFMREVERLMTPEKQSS
Put plainly: Inhibition of human recombinant FAAH overexpressed in African green monkey COS7 cells using [3H]-anandamide as substrate preincubated for 10 mins before substrate addition measured after 10 mins by liquid scintillation counting analysis. In kind it is cell-based, COS-7.

For experiment [2], the target named is Cannabinoid receptor 1 (Rattus norvegicus) (UniProt P20272). Put plainly: Antagonist activity at CB1 receptor in rat cerebellar membranes assessed as HU210-evoked response up to 10 uM incubated for 10 mins prior to testing by [35S]GTPgammaS binding assay. The experiment is classed as functional, cell membranes. The settings on record: Cerebellum, Membrane. On the technique in general: Binding of GTPγS marks nucleotide exchange on a G protein.

The target in experiment [3] is T2, Prostaglandin G/H synthase 2 (Homo sapiens) (UniProt P35354).
T2 sequence (whole entry): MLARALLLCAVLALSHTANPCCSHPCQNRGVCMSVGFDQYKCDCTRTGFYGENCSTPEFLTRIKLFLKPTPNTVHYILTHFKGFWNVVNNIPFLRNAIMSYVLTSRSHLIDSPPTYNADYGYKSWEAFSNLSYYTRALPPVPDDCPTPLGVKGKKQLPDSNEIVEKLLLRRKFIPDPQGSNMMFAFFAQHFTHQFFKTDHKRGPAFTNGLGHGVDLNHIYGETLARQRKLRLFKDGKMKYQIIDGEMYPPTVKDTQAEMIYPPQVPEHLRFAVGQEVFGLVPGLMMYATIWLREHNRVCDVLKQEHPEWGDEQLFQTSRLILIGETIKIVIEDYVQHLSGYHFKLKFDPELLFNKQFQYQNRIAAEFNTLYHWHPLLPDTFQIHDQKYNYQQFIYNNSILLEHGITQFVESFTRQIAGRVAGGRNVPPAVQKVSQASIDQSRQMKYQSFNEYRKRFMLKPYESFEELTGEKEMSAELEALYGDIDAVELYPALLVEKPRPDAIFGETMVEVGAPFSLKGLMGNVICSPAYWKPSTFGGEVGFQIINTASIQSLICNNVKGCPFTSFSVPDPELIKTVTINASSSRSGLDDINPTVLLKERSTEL
In words: Inhibition of human recombinant COX-2 assessed as inhibition of 2-AG cyclooxygenation at 10 uM measured within 10 to 50 secs relative to control.

Experiment [4] concerns the target T2, Prostaglandin G/H synthase 2 (Homo sapiens). In words: Inhibition of human recombinant COX-2 using arachidonic acid as substrate assessed as oxygen consumption at 10 uM measured within 10 to 50 secs relative to control.
Experiment [5] deals with T3, Fatty-acid amide hydrolase 1 (Mus musculus) (UniProt O08914).
T3 sequence (whole entry): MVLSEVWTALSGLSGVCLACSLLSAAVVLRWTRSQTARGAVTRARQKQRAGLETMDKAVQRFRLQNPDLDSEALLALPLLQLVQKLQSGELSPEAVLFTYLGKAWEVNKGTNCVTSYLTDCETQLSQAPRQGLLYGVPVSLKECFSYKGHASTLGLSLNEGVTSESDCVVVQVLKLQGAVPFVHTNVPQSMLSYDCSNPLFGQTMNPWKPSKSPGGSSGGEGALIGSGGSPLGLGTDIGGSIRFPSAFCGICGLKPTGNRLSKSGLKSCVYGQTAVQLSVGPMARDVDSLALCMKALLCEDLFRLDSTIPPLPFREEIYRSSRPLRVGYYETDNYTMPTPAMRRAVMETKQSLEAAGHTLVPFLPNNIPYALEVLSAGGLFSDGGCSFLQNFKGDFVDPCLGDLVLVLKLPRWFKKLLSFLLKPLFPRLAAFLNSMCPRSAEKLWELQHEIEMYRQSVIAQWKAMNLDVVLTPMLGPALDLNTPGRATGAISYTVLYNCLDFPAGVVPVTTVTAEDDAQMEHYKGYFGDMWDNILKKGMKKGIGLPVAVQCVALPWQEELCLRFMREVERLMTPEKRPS
Put plainly: Inhibition of TAMRA-FP-labeled FAAH in mouse brain membrane at 1 uM after 1 hr by fluorescent gel scanning assay. In kind it is cell membranes.

For experiment [6], the target named is T4, Fatty-acid amide hydrolase 1 (Homo sapiens) (UniProt O00519).
T4 sequence (whole entry): T1 sequence (O00519 whole entry)
Put plainly: Noncompetitive inhibition of human recombinant FAAH overexpressed in African green monkey COS7 cells using anandamide as substrate assessed as decrease in Vmax of substrate hydrolysis preincubated for 10 mins before substrate addition measured after 10 mins by HPLC analysis. The settings on record: COS-7.

For experiment [7], the target named is T4, Fatty-acid amide hydrolase 1 (Homo sapiens). Put plainly: Reversible inhibition of human recombinant FAAH overexpressed in African green monkey COS7 cells using […] as substrate assessed as recovery of enzyme activity at 20 x IC50 preincubated for 60 mins followed by 500 fold dilution measured after 10 mins by HPLC analysis. The experiment is classed as cell-based. The settings on record: COS-7.

For experiment [8] the target is unchanged. In words: Inhibition of human recombinant FAAH overexpressed in African green monkey COS7 cells using [3H]-anandamide as substrate at 10 to 300 uM preincubated for 10 to 60 mins by liquid scintillation counting analysis. The experiment is classed as cell-based. The settings on record: COS-7.
Experiment [9] has the same target. Put plainly: Inhibition of human recombinant FAAH overexpressed in African green monkey COS7 cells using [3H]-anandamide as substrate at 3 to 30 uM preincubated for 10 to 60 mins by liquid scintillation counting analysis. The experiment is classed as cell-based. The settings on record: COS-7.
In experiment [10] the target is T5, Monoglyceride lipase (Homo sapiens) (UniProt Q99685).
T5 sequence (whole entry): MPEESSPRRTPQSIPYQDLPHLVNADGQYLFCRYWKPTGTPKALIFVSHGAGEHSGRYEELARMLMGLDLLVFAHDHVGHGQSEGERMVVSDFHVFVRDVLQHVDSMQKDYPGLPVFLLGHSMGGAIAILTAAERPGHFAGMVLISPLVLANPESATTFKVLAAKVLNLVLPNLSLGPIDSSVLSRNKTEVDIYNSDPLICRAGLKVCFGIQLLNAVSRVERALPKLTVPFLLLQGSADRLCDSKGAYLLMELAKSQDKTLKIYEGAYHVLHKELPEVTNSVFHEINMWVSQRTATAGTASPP
In words: Inhibition of human recombinant MAGL overexpressed in HEK cells using 2-AG as substrate at 10 uM preincubated for 10 mins before substrate addition measured after 10 mins by HPLC analysis relative to control. In kind it is cell-based. As to conditions: HEK293.

In general, inhibition refers to the percentage by which the read-out fell short of the control.

Cannabinoid receptor 1 (Rattus norvegicus), sequence (P20272 whole entry): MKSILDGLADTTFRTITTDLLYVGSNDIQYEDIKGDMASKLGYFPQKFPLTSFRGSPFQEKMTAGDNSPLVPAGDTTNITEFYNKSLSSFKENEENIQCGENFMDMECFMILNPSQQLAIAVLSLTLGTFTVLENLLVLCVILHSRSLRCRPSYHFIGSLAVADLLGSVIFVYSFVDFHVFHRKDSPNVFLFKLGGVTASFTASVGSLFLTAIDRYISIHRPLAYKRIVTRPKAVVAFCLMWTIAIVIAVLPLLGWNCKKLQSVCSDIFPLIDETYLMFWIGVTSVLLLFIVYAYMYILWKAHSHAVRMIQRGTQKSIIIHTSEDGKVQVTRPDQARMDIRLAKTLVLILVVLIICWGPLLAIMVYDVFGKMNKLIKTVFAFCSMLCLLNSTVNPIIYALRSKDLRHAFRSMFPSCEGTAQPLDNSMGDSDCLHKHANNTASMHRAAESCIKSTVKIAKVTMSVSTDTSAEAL

Turning to `COc1nn([C@@H](C)c2ccc(CC(C)C)cc2)c(=O)o1`, the figures for the IC50 in experiment [1] (read-out: IC50) and in experiment [1] (read-out: pIC50 (converted)) were 0.011 µM and 0.0115 µM, respectively. In addition, in experiment [2], the result was inactive. Also, the inhibition is 10% in experiment [3], 20% in experiment [4], “Dose-dependent effect” in experiment [6] and 16% in [10]. The inhibition entry in experiment [5], in experiment [7], in experiment [8] and in experiment [9] was “Active” in each case.
